Experimental data from BindingDB's records for patent US20250313563 (The Broad Institute, 2025).
Values joined by “and” are separate entries in the source; they are usually repeats but may differ in a detail not shown here. Equal entries are not always repeated.

What was measured:
[1] = molecular target: Glycogen synthase kinase-3 alpha (Homo sapiens, UniProt P49840); experiment: TR-FRET Assay
Outline: (§1)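 Enzyme and test compound were first incubated together for 30 minutes in assay buffer. The kinase reaction followed and was stopped with EDTA. The pSer641 signal was read by time-resolved FRET.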

[2] = molecular target: Glycogen synthase kinase-3 beta (Homo sapiens, UniProt P49841); experiment: TR-FRET Assay
Glycogen synthase kinase-3 beta, sequence (P49841 whole entry): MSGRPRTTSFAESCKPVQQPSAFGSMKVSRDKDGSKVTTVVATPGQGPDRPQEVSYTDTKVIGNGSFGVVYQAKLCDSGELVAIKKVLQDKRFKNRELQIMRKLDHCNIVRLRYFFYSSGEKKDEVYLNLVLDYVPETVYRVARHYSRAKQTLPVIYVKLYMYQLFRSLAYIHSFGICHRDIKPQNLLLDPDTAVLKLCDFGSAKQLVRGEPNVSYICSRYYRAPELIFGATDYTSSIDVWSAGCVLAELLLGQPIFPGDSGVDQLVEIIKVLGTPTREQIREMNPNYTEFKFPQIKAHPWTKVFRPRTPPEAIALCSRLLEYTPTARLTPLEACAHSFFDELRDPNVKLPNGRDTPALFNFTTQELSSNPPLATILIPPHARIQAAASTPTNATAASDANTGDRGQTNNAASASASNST
Outline: as §1

Glycogen synthase kinase-3 alpha, sequence (P49840 whole entry): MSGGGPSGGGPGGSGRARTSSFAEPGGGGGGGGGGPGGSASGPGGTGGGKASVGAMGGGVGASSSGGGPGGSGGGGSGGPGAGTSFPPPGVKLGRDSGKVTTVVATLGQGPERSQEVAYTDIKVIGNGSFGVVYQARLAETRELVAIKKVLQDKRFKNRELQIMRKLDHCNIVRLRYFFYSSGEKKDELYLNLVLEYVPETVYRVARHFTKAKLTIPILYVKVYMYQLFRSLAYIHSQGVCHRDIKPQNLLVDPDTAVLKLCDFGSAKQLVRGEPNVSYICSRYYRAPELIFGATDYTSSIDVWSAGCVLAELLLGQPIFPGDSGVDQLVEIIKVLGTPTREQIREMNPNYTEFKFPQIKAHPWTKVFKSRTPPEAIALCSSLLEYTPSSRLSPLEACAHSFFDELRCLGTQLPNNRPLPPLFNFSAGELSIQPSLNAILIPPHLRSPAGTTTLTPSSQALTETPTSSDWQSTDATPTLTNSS

Structure (SMILES)	IC50 [1]	IC50 [2]
CC[C@]1(c2cccc(-c3ccncn3)c2)C2=CN=NC2NC2=C1C(=O)CC(C)(C)C2 (stereo partly specified) [US20250313563, Compound 810488]	< 100 nM	100 to 1000 nM
CC[C@]1(c2cccc([C@@H](C)c3ncccn3)c2)C2=CN=NC2NC2=C1C(=O)CC(C)(C)C2 (stereo partly specified) [US20250313563, Compound 948058]	< 100 nM and 100 to 1000 nM	< 100 nM and 1000 to 5000 nM
CC1(C)CC(=O)C2=C(C1)NC1=C(CN=N1)C21CCN(S(=O)(=O)c2ccc3c(c2)OCCO3)CC1 [US20250313563, Compound 947900]	< 100 nM	< 100 nM
CC[C@@]1(c2cccc(-c3ccnn3C)c2)C2=CN=NC2NC2=C1C(=O)NC1(CCC1)C2 (stereo partly specified) [US20250313563, Compound 948358]	< 100 nM and 100 to 1000 nM	< 100 nM and 1000 to 5000 nM
CCC1(c2cccc(Br)c2)C2=CN=NC2NC2=C1C(=O)CC(C(F)(F)F)C2 (stereo unspecified) [US20250313563, Compound 819565]	100 to 1000 nM	100 to 1000 nM
CC1(C)CC(=O)C2=C(C1)NC1=C(CN=N1)[C@@]21CCN(S(=O)(=O)c2ccccc2)C1 [US20250313563, Compound 951788]	< 100 nM and 100 to 1000 nM	< 100 nM and 1000 to 5000 nM
CC[C@]1(c2cccc(Oc3ncccn3)c2)C2=C(CC(C)(C)NC2=O)NC2N=NC(C(F)(F)F)=C21 (stereo partly specified) [US20250313563, Compound 951607]	< 100 nM	< 100 nM and 100 to 1000 nM
CC[C@@]1(c2cccc(N(C)c3ccnnc3)c2)C2=CN=NC2NC2=C1C(=O)CC(C)(C)C2 (stereo partly specified) [US20250313563, Compound 915630]	100 to 1000 nM	1000 to 5000 nM
CO[C@H]1C[C@@]2(C1)C1=C(N=NC1)NC1=C2C(=O)CC(C)(C)C1 [US20250313563, Compound 901473]	> 5000 nM	> 5000 nM
O=C1CC2(CCC2)CC2=C1C1(CCOCC1)C1=C(N=NC1)N2 [US20250313563, Compound 909208]	< 100 nM	100 to 1000 nM
CCC1(c2cccc(-c3cnco3)c2)C2=CN=NC2NC2=C1C(=O)CC(C)(C)C2 (stereo unspecified) [US20250313563, Compound 944025]	< 100 nM	100 to 1000 nM
CC[C@@]1(c2cccc(-c3ccnc(C(F)F)c3)c2)C2=CN=NC2NC2=C1C(=O)CC(C)(C)C2 (stereo partly specified) [US20250313563, Compound 943919]	< 100 nM	100 to 1000 nM
CC1(C)CC(=O)C2=C(C1)NC1=C(CN=N1)C21COC2(CCC2)C1 (stereo unspecified) [US20250313563, Compound 911973]	100 to 1000 nM	100 to 1000 nM
CCn1ccc(S(=O)(=O)N2CCC3(CC2)C2=C(N=NC2)NC2=C3C(=O)CC(C)(C)C2)n1 [US20250313563, Compound 945671]	< 100 nM	< 100 nM
CC[C@@]1(c2ccccc2)C2=CN=NC2NC2=C1C(=O)[C@@H](C)C[C@H]2C (stereo partly specified) [US20250313563, Compound 909218]	> 5000 nM	> 5000 nM
CC[C@]1(c2cccc(-c3ccnc(C)c3C)c2)C2=C(CC(C)(C)CC2=O)NC2N=NC(C(F)(F)F)=C21 (stereo partly specified) [US20250313563, Compound 947328]	100 to 1000 nM	100 to 1000 nM
CCC1(c2ccccc2)C2=C(N=NC2)NC2=C1C(=O)CC1(CCC1)C2 (stereo unspecified) [US20250313563, Compound 811555]	100 to 1000 nM	100 to 1000 nM
CC1(C)CC(=O)C2=C(C1)NC1=C(CN=N1)C21CN(C(=O)OCc2ccccc2)C1 [US20250313563, Compound 889568]	100 to 1000 nM	1000 to 5000 nM
CCC1(c2cccc(C3CCOCC3)c2)C2=CN=NC2NC2=C1C(=O)CC(C)(C)C2 (stereo unspecified) [US20250313563, Compound 791273]	< 100 nM	100 to 1000 nM
CC[C@@]1(c2cccc(-c3cnn(C4CC4(F)F)c3)c2)C2=CN=NC2NC2=C1C(=O)NC(C)(C)C2 (stereo partly specified) [US20250313563, Compound 950060]	< 100 nM	100 to 1000 nM
CC[C@@]1(c2cccc(Br)c2)C2=CN=NC2NC2=C1C(=O)C[C@H](C(F)(F)F)C2 (stereo partly specified) [US20250313563, Compound 826654]	> 5000 nM	> 5000 nM
CC[C@]1(c2cccc(-c3ccnc(C)c3)c2)C2=CN=NC2NC2=C1C(=O)N[C@@H](C)C2 (stereo partly specified) [US20250313563, Compound 932658]	< 100 nM	100 to 1000 nM
CC[C@]1(c2cccc(C(F)(F)F)c2)C2=CN=NC2NC2=C1C(=O)N(C)C(C)(C)C2 (stereo partly specified) [US20250313563, Compound 826790]	100 to 1000 nM	1000 to 5000 nM
CC1(C)CC(=O)C2=C(C1)NC1=C(CN=N1)C21CCN(S(=O)(=O)c2ccccc2OC(F)F)CC1 [US20250313563, Compound 945668]	< 100 nM	< 100 nM and 100 to 1000 nM
CCC1(c2cccc(C(F)(F)F)c2)C2=CN=NC2NC2=C1C(=O)N(c1ccccc1)C2 (stereo unspecified) [US20250313563, Compound 918313]	100 to 1000 nM	1000 to 5000 nM
CC[C@]1(c2cccc(-c3ccnn3C)c2)C2=C(CC(C)(C)CC2=O)NC2N=NC(C)=C21 (stereo partly specified) [US20250313563, Compound 913046]	1000 to 5000 nM and > 5000 nM	> 5000 nM
CC1(C)CC(=O)C2=C(C1)NC1=C(CN=N1)[C@]21CCC[C@H](C#N)C1 [US20250313563, Compound 946078]	1000 to 5000 nM	> 5000 nM

Structure (SMILES)	IC50 [1]	IC50 [2]
CC[C@]1(c2cccc(S(C)(=O)=O)c2)C2=C(CC(C)(C)NC2=O)NC2N=NC(C(F)(F)F)=C21 (stereo partly specified) [US20250313563, Compound 948418]	< 100 nM	< 100 nM
CCC1(c2ccccc2)C2=C(N=NC2)NC2=C1C(=O)CC(C)(C(F)(F)F)C2 (stereo unspecified) [US20250313563, Compound 816796]	100 to 1000 nM	1000 to 5000 nM
CC[C@@]1(c2cccc(-c3cnn(-c4ccccn4)c3)c2)C2=CN=NC2NC2=C1C(=O)NC(C)(C)C2 (stereo partly specified) [US20250313563, Compound 952566]	100 to 1000 nM	1000 to 5000 nM
CC[C@]1(c2cccc(-c3cnn(C)c3C#N)c2)C2=CN=NC2NC2=C1C(=O)NC(C)(C)C2 (stereo partly specified) [US20250313563, Compound 948814]	> 5000 nM	> 5000 nM
CC1(C)CC2=C(C(=O)N1)C1(CCN(S(=O)(=O)c3cnn(C(C)(C)C)c3)CC1)C1=C(N=NC1)N2 [US20250313563, Compound 947835]	< 100 nM	100 to 1000 nM
CCC1(c2cccc(N(C)c3ccc(C(F)(F)F)nc3)c2)C2=CN=NC2NC2=C1C(=O)CC(C)(C)C2 (stereo unspecified) [US20250313563, Compound 932634]	< 100 nM	100 to 1000 nM
CC[C@@]1(c2cccc(N(C)c3cncnc3)c2)C2=CN=NC2NC2=C1C(=O)NC(C)(C)C2 (stereo partly specified) [US20250313563, Compound 915401]	100 to 1000 nM	1000 to 5000 nM
CCC1(c2cccc(-c3ccncc3F)c2)C2=C(CC(C)(C)CC2=O)NC2N=NC(C(F)(F)F)=C21 (stereo unspecified) [US20250313563, Compound 945528]	< 100 nM	< 100 nM and 100 to 1000 nM
CC[C@@]1(c2cccc(-c3cnn4c3CCCC4)c2)C2=C(CC(C)(C)NC2=O)NC2N=NC(C(F)(F)F)=C21 (stereo partly specified) [US20250313563, Compound 948775]	< 100 nM	< 100 nM and 100 to 1000 nM
CC1(C)CC(=O)C2=C(C1)NC1N=NC(C(F)(F)F)=C1C21CCCc2ccccc21 (stereo unspecified) [US20250313563, Compound 790745]	< 100 nM	< 100 nM
CC[C@]1(c2cccc(-c3cncn3C)c2)C2=C(CC(C)(C)NC2=O)NC2N=NC(C(F)(F)F)=C21 (stereo partly specified) [US20250313563, Compound 949003]	100 to 1000 nM	100 to 1000 nM
CCC1(c2cccc(N(C)c3nccc(C)n3)c2)C2=CN=NC2NC2=C1C(=O)CC(C)(C)C2 (stereo unspecified) [US20250313563, Compound 942642]	< 100 nM	< 100 nM and 1000 to 5000 nM
CC[C@]1(c2cccc(-c3ccnc4ccc(C)cc34)c2)C2=CN=NC2NC2=C1C(=O)NC(C)(C)C2 (stereo partly specified) [US20250313563, Compound 948658]	> 5000 nM	> 5000 nM
CC[C@@]1(c2ccccc2)C2=CN=NC2NC2=C1C(=O)C[C@@H](C)C2 (stereo partly specified) [US20250313563, Compound 789013]	100 to 1000 nM	> 5000 nM
CC[C@@]1(c2cccc(-c3c(F)cncc3OC)c2)C2=C(N=NC2)NC2=C1C(=O)C(C)(C)C2 [US20250313563, Compound 952562]	1000 to 5000 nM	> 5000 nM
CCC1(c2cccc(-c3ccnc(CO)c3)c2)C2=CN=NC2NC2=C1C(=O)CC(C)(C)C2 (stereo unspecified) [US20250313563, Compound 943540]	< 100 nM	100 to 1000 nM
CC[C@@]1(c2cccc(-c3ccnn3C3CC3(F)F)c2)C2=CN=NC2NC2=C1C(=O)NC(C)(C)C2 (stereo partly specified) [US20250313563, Compound 950824]	< 100 nM and 100 to 1000 nM	< 100 nM and 100 to 1000 nM
CCC1(c2cccc(-c3ccnc4c3CCC4)c2)C2=C(N=NC2)NC2=C1C(=O)C(C)(C)C2 (stereo unspecified) [US20250313563, Compound 952557]	< 100 nM	100 to 1000 nM
CCC1(c2cccc(-c3ccnc(C)c3)c2)C2=CN=NC2NC2=C1C(=O)NC(C)C2 (stereo unspecified) [US20250313563, Compound 913357]	100 to 1000 nM	1000 to 5000 nM
CC[C@@]1(c2cccc(-c3cc(C)nn3C)c2)C2=CN=NC2NC2=C1C(=O)CC(C)(C)[C@@H]2F (stereo partly specified) [US20250313563, Compound 947657]	100 to 1000 nM	> 5000 nM
CC[C@]1(c2cccc(-c3ccncc3F)c2)C2=C(CC(C)(C)NC2=O)NC2N=NC(C)=C21 (stereo partly specified) [US20250313563, Compound 947805]	100 to 1000 nM	1000 to 5000 nM
CC(C)(C)CC1=C2C(N=N1)NC1=C(C(=O)CC(C)(C)C1)C21CCCc2ccccc21 (stereo unspecified) [US20250313563, Compound 810495]	100 to 1000 nM	< 100 nM
CCC1(c2cccc(N(C)C(=O)COC)c2)C2=CN=NC2NC2=C1C(=O)CC(C)(C)C2 (stereo unspecified) [US20250313563, Compound 889580]	< 100 nM	100 to 1000 nM
CCC1(c2cccc(C(C)C)c2)C2=CN=NC2NC2=C1C(=O)CC(C)(C)C2 (stereo unspecified) [US20250313563, Compound 801322]	< 100 nM	100 to 1000 nM
CCC1(c2cccc(-c3cnn(C)c3)c2)C2=C(CC(C)(C)NC2=O)NC2N=NC(F)=C21 (stereo unspecified) [US20250313563, Compound 948300]	< 100 nM	100 to 1000 nM
CC1(C)CC(=O)C2=C(C1)NC1=C(CN=N1)C21CCN(S(=O)(=O)c2cnn3c2CCCC3)CC1 [US20250313563, Compound 947474]	< 100 nM	< 100 nM
